Test results taken from PMC12227648, “Chemoproteomics identifies protein ligands for monoacylglycerol lipids” (Communications Chemistry, 2025).

Columns and labels:
mouse HPCA (Hippocalcin) [1] = biological target: T1, mouse HPCA (Hippocalcin) (Mus musculus, UniProt P84075); assay: UV photocrosslinking, click rhodamine-azide, in-gel fluorescence; format: binding; conditions: probe 10 uM or 0-250 uM, HPCA 10 uM, 50 mM Tris pH 8.0, 37 C, 6 min UV 365 nm, covalent photo-crosslink
T1 construct: full-length cDNA in pET45b(+), N-terminal 6x-His tag kept, E. coli BL21 (DE3), HisTrap purified; major ~20 kDa and minor ~25 kDa bands

[2] = biological target: T2, HPCA (N-terminal FLAG tag) in HEK293T lysates (Mus musculus, UniProt P84075); assay: UV photocrosslinking in lysate, click, in-gel fluorescence; format: biochemical; conditions: probe 50 uM, 2 mg/mL HEK293T lysate; covalent photo-crosslink; mock control
T2 construct: N-terminal FLAG tag, transiently overexpressed in HEK293T

mouse HPCA (Hippocalcin) [3] = biological target: T1, mouse HPCA (Hippocalcin); assay: effect on PG-DA photo-labelling, in-gel fluorescence; conditions: HPCA 10 uM, PG-DA 10 uM, 1-PG 0-250 uM, 37 C, 30 min; raises, not competes, probe binding (suggested cooperative)

C#CCCCC1(CCCCCCCCCC(=O)OCC(O)CO)N=N1 (stereo not shown) [PG-DA]
UV photocrosslinking, click rhodamine-azide, in-gel fluorescence (mouse HPCA (Hippocalcin) [1]; Ca2+ surplus versus EDTA compared): PG-DA bound significantly more to mouse HPCA than the PA-DA probe
UV photocrosslinking in lysate, click, in-gel fluorescence [2]: PG-DA probe, but not PA-DA probe, was able to bind to HPCA in HEK293T lysates

C#CCCCC1(CCCCCCCCCC(=O)O)N=N1 [PA-DA]
UV photocrosslinking, click rhodamine-azide, in-gel fluorescence (mouse HPCA (Hippocalcin) [1]; weaker control probe): PG-DA probe binds far more to HPCA than the PA-DA probe

CCCCCCCCCCCCCCCC(=O)OCC(O)CO (stereo not shown) [1-PG]
effect on PG-DA photo-labelling, in-gel fluorescence (mouse HPCA (Hippocalcin) [3]): increasing the 1-PG concentration resulted in the heightened binding of the PG-DA probe
